Laboratory results published in ChEMBL document CHEMBL3785063 (Eur J Clin Pharmacol, 1981).

Columns and labels:
[1] = Drug excretion in arrhythmia patient (7 patients) assessed as unchanged compound level in urine at 400 mg, iv after 4 days 400 mg, po dose administered followed continuous oral therapy with 200 mg, tid measured 2 hrs after iv drug challenge by HPLC analysis; conditions: human
[2] = Drug concentration in arrhythmia patient (7 patients) serum at 400 mg, iv after 4 days 400 mg, po dose administered followed continuous oral therapy with 200 mg, tid measured after 48 hrs by HPLC analysis; conditions: human
[3] = Drug concentration in arrhythmia patient (7 patients) serum at 400 mg, iv after 4 days 400 mg, po dose administered followed continuous oral therapy with 200 mg, tid measured after 24 hrs by HPLC analysis; conditions: human
[4] = Drug concentration in arrhythmia patient (7 patients) serum at 400 mg, iv after 4 days 400 mg, po dose administered followed continuous oral therapy with 200 mg, tid measured after 1 week by HPLC analysis; conditions: human
[5] = Drug uptake in arrhythmia patient (7 patients) serum at 400 mg, iv after 4 days 400 mg, po dose administered followed continuous oral therapy with 200 mg, tid measured 2 hrs after iv drug challenge by HPLC analysis; conditions: human
[6] = Drug concentration in arrhythmia patient (7 patients) serum at 400 mg, iv after 4 days 400 mg, po dose administered followed continuous oral therapy with 200 mg, tid measured after 1 month by HPLC analysis; conditions: human
[7] = Tmax in arrhythmia patient (7 patients) at 400 mg, iv after 4 days 400 mg, po dose administered followed continuous oral therapy with 200 mg, tid by HPLC analysis; conditions: human, in vivo

`CCCCc1oc2ccccc2c1C(=O)c1cc(I)c(OCCN(CC)CC)c(I)c1` [AMIODARONE] gave a concentration at 2 h [1] of 100 ng/mL, a concentration at 48 h [2] of 760 ng/mL and a concentration at 24 h [3] of 610 ng/mL. It also gave a concentration at 1 week [4] of 1180 ng/mL, a concentration at 2 h [5] of 2000 ng/mL and a concentration at 96 h [6] of 1560 ng/mL. The Tmax at 96 h [7] was 7.3 h.
